Laboratory results as given in patent US10919891B2, “Heterocyclic compound” (TAKEDA PHARMACEUTICAL COMPANY LIMITED, priority 2017, dated 2021).

Legend:
CSQ-Tg mice [1] = test: Effect on survival rate of heart failure animal model; format: in vivo
Text: In this Test Example, effect of the compound of Example 1 on survival rate was examined using heart failure animal models. The mice reported in Larry R. Jones et al., J. Clin. Invest. 101: 1385-1393, 1998 were obtained from the University of Pennsylvania and bred in-house, which were cardiac-specific transgenic mice of Calsequestrin (CSQ)(CSQ-Tg mice) as the heart failure animal models. In the study, female mice were used, and dosing was started from the age of 5 weeks. The animals were fed with chow (CE-2, CLEA Japan, Inc.) and tap water under the condition of room temperature of 20 to 26° C., humidity of 40 to 70%, and lighting time of 12 hours/day (7:00 to 19:00). As already reported, in the CSQ-Tg mice, Ca^2+ intracellular release was suppressed, myocardial contraction was reduced, cardiac output was decreased, and cardiac hypertrophy and heart failure were developed.
To 5-week old female CSQ-Tg mice, the compound of Example 1 was orally administered at a dose of 10 mg/kg bodyweight/day with a frequency of once daily (QD) for 47 days (n=24). While, to the control group, vehicle (0.5% methylcellulose aqueous solution) was administered (n=24).
To 5-week old female CSQ-Tg mice, the compound of Example 1 was orally administered at a dose of 10 mg/kg bodyweight/day in combination with candesartan cilexetil (1 mg/kg bodyweight/day) with a frequency of once daily (QD) for 68 days (n=18). […]

CYP3A4 = target: T1, CYP3A4 (Homo sapiens, UniProt P08684); test: CYP3A4 TDI (human liver microsomes, testosterone 6β-hydroxylation); format: in vitro ADME; conditions: test compound 30 μM, 60 min vs 0 min preincubation with NADPH, 37° C.
T1 construct: Human liver microsomes purchased from XenoTech, LLC (Lenexa, Kans.) was used; tissue XenoTech, LLC; host or cells: human liver microsomes
T1 sequence (P08684 whole entry): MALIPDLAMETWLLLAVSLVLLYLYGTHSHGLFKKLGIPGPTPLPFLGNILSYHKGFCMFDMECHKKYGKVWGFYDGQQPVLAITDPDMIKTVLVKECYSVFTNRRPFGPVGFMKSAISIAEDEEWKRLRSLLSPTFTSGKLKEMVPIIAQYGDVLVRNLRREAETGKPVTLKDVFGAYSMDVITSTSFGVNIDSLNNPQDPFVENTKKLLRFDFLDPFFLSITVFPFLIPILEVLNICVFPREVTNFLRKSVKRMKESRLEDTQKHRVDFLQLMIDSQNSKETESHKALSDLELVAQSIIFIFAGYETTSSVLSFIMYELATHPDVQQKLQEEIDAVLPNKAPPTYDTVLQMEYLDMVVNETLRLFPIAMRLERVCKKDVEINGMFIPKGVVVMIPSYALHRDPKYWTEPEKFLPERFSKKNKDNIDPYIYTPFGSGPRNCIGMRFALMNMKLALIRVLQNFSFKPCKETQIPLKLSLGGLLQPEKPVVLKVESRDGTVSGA
Description: Human liver microsomes purchased from XenoTech, LLC (Lenexa, Kans.) was used. Test compounds were dissolved in acetonitrile, acetonitrile/methanol (1:1, v/v) or DMSO/acetonitrile (1:4, v/v). To a human liver microsomes solution adjusted with phosphate buffer (pH 7.4), the test compound solution was added to obtain a human liver microsomes reaction solution having the test compound concentration of 30 μM. To the human liver microsome reaction solution, NADPH production system was added, and the mixture was preincubated at 37° C. for 0 minutes or 60 minutes. After the preincubation, probe substrate testosterone was added, and testosterone metabolite 6β-hydroxytestosterone was analyzed by LC/MS/MS to evaluate CYP3A4 enzymatic activity.
The enzyme activity (% of control) at each preincubation point was calculated from the following equation: % of control=[(activity of test compound addition group)/(activity of test compound non-addition group)]×100.
The remaining activity (% remaining) after 60 minutes of preincubation was calculated from the following equation: Remaining activity (%)=[activity after 60 minutes (% of control60 min)]/[activity after 0 minutes (% of control0 min)]×100.

CSQ-Tg mice [2] = test: Heart weight lowering effect in heart failure animal model; format: in vivo; conditions: for Heart weight (Mean ± standard deviation (mg)): female CSQ-Tg mice
Description: In this Test Example, the heart weight lowering effect of the compound of Example 1 was evaluated using CSQ-Tg mice as animal model for heart failure.
The compound of Example 1 was suspended in 0.5% methylcellulose aqueous solution (hereinafter, in Test Examples, sometimes referred to as “vehicle”) (10 mL/kg). The obtained suspension was orally administered to 5-week old female CSQ-Tg mice developing heart failure at a dose of 10 mg/kg bodyweight/day (n=7) or 30 mg/kg bodyweight/day (n=10) once daily (QD) for 21 days. For a negative control (vehicle administration group), 0.5% methylcellulose aqueous solution (n=7) was administered. Then, weights of the hearts were measured. The measurement of the weights was carried out by fractionating each of the hearts into four: left ventricle, right ventricle, left atrium, and right atrium. The sum of the weights of the four fractions was defined as the heart weight.

[3] = 10 mg/kg bodyweight/day oral QD for 21 days
[4] = 30 mg/kg bodyweight/day oral QD for 21 days

SMILES: CC1(C)C[C@H](c2ccccc2)Nc2c(C(=O)N3C[C@@H]4C[C@]4(c4ccc(Cl)c(Cl)c4)C3)cnn21 [Example 1, ((1S,5R)-1-(3,4-Dichlorophenyl)-3-azabicyclo[3.1.0]hex-3-yl)((5R)-7,7-dimethyl-5-phenyl-4,5,6,7-tetrahydropyrazolo[1,5-a]pyrimidin-3-yl)methanone]
- Survival rates, log-rank test p (CSQ-Tg mice [1]; 10 mg/kg bodyweight/day co-administered with candesartan cilexetil (1 mg/kg bodyweight/day) QD 68 days vs candesartan cilexetil mono-administration (FIG. 2)): < 0.001
- Survival rates, log-rank test p (CSQ-Tg mice [1]; 10 mg/kg bodyweight/day oral QD for 47 days vs vehicle administration group (FIG. 1)): < 0.025
- Remaining Activity (%) (CYP3A4): 86.0%
- Left atrium weight (Mean ± standard deviation (mg)) (CSQ-Tg mice [2]; [3]): 10.7 ± 3.5 mg
- Left ventricle weight (Mean ± standard deviation (mg)) (CSQ-Tg mice [2]; [3]): 160.1 ± 11.9 mg
- Right atrium weight (Mean ± standard deviation (mg)) (CSQ-Tg mice [2]; [3]): 6.2 ± 3.1 mg
- Right ventricle weight (Mean ± standard deviation (mg)) (CSQ-Tg mice [2]; [3]): 44.9 ± 5.1 mg
- Heart weight (Mean ± standard deviation (mg)) (CSQ-Tg mice [2]; [3]): 221.9 ± 18.2 mg
- Left atrium weight (Mean ± standard deviation (mg)) (CSQ-Tg mice [2]; [4]): 9.6 ± 2.6 mg
- Left ventricle weight (Mean ± standard deviation (mg)) (CSQ-Tg mice [2]; [4]): 153.2 ± 12.7 mg
- Right atrium weight (Mean ± standard deviation (mg)) (CSQ-Tg mice [2]; [4]): 5.8 ± 2.4 mg
- Heart weight (Mean ± standard deviation (mg)) (CSQ-Tg mice [2]; [4]): 212.5 ± 21.9 mg
- Right ventricle weight (Mean ± standard deviation (mg)) (CSQ-Tg mice [2]; 30 mg/kg bodyweight/day oral QD for 21 days, ** Williams' multiple comparison test (p < 0.025)): 43.9 ± 6.9** mg
